Measured values reported in patent publication US8470844B2, “Imidazoacridinone derivative compounds and methods for their use” (Technion Research & Development Foundation Limited, priority 2008, dated 2013).

Legend:
[1] = test system: A549/K1.5 cells; experiment: MTT cytotoxicity assay, ABCG2-overexpressing A549/K1.5 cells; assay type: cell-based, Human; details: for resistance of A549/K1.5 cells (in words): versus parental A549 cells
Experimental: (§1) Tissue culture: Human non-small cell lung cancer A549 cells and T-cell leukemia CCRF-CEM cells were grown under monolayer conditions or up to a maximal density of 10^6 cells/ml (for CCRF-CEM cells) in RPMI-1640 medium (GIBCO) supplemented with 10% fetal calf serum, 2 mM glutamine, 100 μg/ml penicillin and 100 μg/ml streptomycin (Biological Industries, Beth-Haemek, Israel) in a humid atmosphere of 5% CO2. Drug resistant A549/K1.5 cells with ABCG2 overexpression were maintained under a continuous drug selection with 1.5 μM C-1305. Bram, E. E., et al., (2007) Biochem Pharmacol 74(1), 41-53.
(§2) Cytotoxicity and growth inhibition assays: The cytotoxic activity of the various IA antitumor agents was determined using the MTT assay. Poindessous, V., et al., (2003) Clin Cancer Res 9(7), 2817-2825.
(§3) Exponentially growing cells were seeded at 5×10^3 cells/well in 24-well plates (2 ml medium/well). Following an overnight incubation, cells were exposed to different drug concentrations for 96 hours. Cellular viability was determined by adding the tetrazolium salt MTT for 4 h at 37° C., followed by solubilization of the intracellular precipitated formazan in 1 ml DMSO and absorbance was determined by a microplate reader (ASYS Hitech GmbH, Austria). Drug concentrations required to inhibit cell growth by 50% (IC50) compared with untreated controls were determined from the curves of survival versus drug concentrations using the SlideWrite software (Advanced Graphics Software, Inc., Encinitas, Calif.). Resistance folds (RF) were calculated by dividing the IC50 value of the resistant cells by that of the parental cell line. Values presented are means of at least three independent experiments, each performed in duplicates.
Quantitative evaluation of ABCG2 interaction with various IA derivatives: The extent of ABCG2-mediated resistance was expressed using the Resistance Fold (RF) parameter representing the ratio between the IC50 values of the resistant cells and parental cells. Likewise, ABCG2-dependent differential accumulation of IAs in ABCG2-overexpressing A549/K1.5 cells was compared using the ratio of IA accumulation in the presence or absence of the potent ABCG2 inhibitor FTC. This was termed the FTC-dependent Accumulation Fold (AF) and was determined for each IA at a constant IA concentration of 10 μM.

[2] = test system: A549 cells; experiment: MTT cytotoxicity assay, parental A549 cells; assay type: cell-based, Human; details: 96 hours exposure, mean of at least three experiments
Experimental: as §1, §2, §3

[3] = target: T1, FLT3 receptor tyrosine kinase (Homo sapiens, UniProt P36888); details: preclinical, from cited literature; cited from earlier work
T1 sequence (P36888 27-993): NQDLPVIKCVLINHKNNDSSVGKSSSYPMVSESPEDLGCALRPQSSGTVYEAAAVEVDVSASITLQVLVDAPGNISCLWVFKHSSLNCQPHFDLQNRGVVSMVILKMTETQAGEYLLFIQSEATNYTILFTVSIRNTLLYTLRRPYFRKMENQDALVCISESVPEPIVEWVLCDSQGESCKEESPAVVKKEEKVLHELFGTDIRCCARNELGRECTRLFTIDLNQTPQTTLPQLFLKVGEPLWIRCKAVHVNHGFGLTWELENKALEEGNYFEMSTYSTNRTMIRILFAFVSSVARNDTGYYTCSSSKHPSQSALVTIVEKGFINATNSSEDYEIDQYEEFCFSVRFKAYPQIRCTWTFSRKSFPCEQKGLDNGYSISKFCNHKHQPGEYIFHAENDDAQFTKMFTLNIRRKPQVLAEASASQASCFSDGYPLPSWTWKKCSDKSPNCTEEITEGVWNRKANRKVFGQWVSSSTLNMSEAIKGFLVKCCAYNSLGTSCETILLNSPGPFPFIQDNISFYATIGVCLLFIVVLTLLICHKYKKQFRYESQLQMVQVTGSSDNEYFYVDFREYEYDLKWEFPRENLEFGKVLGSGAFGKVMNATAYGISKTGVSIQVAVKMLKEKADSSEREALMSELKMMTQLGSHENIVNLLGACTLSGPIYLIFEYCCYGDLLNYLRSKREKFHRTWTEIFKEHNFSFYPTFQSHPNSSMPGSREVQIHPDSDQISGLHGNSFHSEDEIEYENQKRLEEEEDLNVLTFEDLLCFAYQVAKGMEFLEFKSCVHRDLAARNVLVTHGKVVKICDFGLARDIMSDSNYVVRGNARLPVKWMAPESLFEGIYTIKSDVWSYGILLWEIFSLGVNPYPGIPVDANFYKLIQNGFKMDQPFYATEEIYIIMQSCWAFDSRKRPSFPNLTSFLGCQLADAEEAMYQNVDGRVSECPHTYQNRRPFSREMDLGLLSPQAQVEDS

For `CCN(CC)CCNc1ccc2ncn3c4ccc(O)cc4c(=O)c1c23` [C-1311], which IC50 ([1]; ABCG2-overexpressing A549/K1.5 cells, 96 hours exposure, MTT) is on record?
Its IC50 is 2.34 ± 0.05 µM.

And the “RF (resistance fold)” value ([1]; IC50 of A549/K1.5 cells divided by IC50 of parental A549 cells)?
The value was 8.70.

What about the “resistance of A549/K1.5 cells (in words)” value [1] of the same compound?
The value was “prominent resistance”.

What about the “resistance of A549/K1.5 cells (in words)” value ([1]; listed as Symadex) of the same compound?
Its value is “marked drug resistance”.

What about the IC50 [2] of the same compound?
Its IC50 is 0.27 ± 0.012 µM.

What about the “FLT3 receptor tyrosine kinase inhibition (in words)” value [3] of the same compound?
Its value is “potent and selective FLT3 receptor tyrosine kinase inhibitor”.
